{"source": "patent US11365227B2", "about": "“Peptide and pharmaceutical compositions of same for use as an antimicrobial and in cancer treatment” (UNIVERSITAT DE VALÈNCIA, priority 2017, dated 2022)", "key": {"MDA-MB-231 cells [1]": {"system": "MDA-MB-231 cells", "assay": "Cell proliferation analysis by flow cytometry with Oregon Green", "type": "cell-based, human", "conditions": "50 μM (200 μg/mL)", "description": "A cell proliferation analysis was performed by flow cytometry for tumour cells marked with the fluorophore Oregon Green subsequently treated with a concentration of 50 μM (200 μg/mL) of the peptide PaSK or with H2O as control. This analysis allowed exploring the use of PaSK in a combined therapeutic approach. The combined use of therapeutic agents meant to inhibit tumour growth and maintenance and agents capable of stimulating the patient's immune response in the treatment of cancer is an alternative therapeutic approach to conventional approaches based only on cytotoxic agents for reducing the impact of the two main problems associated with the exclusive use of cytotoxic agents in cancer therapy: non-specific toxicity and the appearance of resistance.\nThe reagent Oregon Green is covalently bonded to free amine groups of cells, conferring on same a homogeneous fluorescence that is distributed among the daughter cells in each cell division. As the fluorescence intensity of the cells is approximately halved with each cell division, the final fluorescence intensity after treatment with the peptide and in non-treated control cells compared to the initial fluorescence intensity of the cells provides information on how many cell division cycles have occurred in each case."}, "[2]": {"assay": "Cell viability MTS assay, cytotoxic effect", "type": "cell-based", "conditions": "mouse, HC-11 normal mammary epithelial cells, approximately 200 μM (700 μg/mL), 0.5% bovine foetal serum", "description": "Cell viability was determined by the MTS method. The MDA-MB-231 cells cultured in plates with 96 wells at 37° C. in an atmosphere humidified with 10% CO2 to a density of 5×10^3 cells/well were incubated with different concentrations of the peptide PaSK for 24 h. Then 20 μL were added of the solution MTS/PMS (3-(4,5-dimethylthiazol-2-yl)-5-(3-carboxymethoxyfenyl)-2-(4-sulphophenyl)-2H-tetrazole/phenazine methosulphate) to each well and after incubating for 2 h in the dark the absorbance at 490 nm was read in a plate reader. The percentage reduction in number of cells was calculated according to the formula (1−E/C)×100, where E is the absorbance of the cells treated with the peptide and C is the absorbance of the samples of the control cells.\nThe cytotoxic effect of the peptide PaSK has been studied in two cell lines of triple-negative breast cancer cells, one human (MDA-MB-231) and one mouse (4T1), and a line of normal mouse mammary epithelial cells (HC-11). To this end, a cell viability MTS assay was performed, based on the use of a compound derived from tetrazolium that is reduced in live cells to form a soluble coloured product. […]"}, "S. aureus": {"system": "S. aureus", "assay": "Transmission electron microscopy of S. aureus cells treated with peptides", "type": "cell-based, Staphylococcus aureus subsp. aureus CECT 4013", "conditions": "25 μg/mL, 1 h", "description": "The samples were prepared in the same way as for scanning electron microscopy, except for the series of graded dehydration with ethanol, in which only the 90° grade was reached. Then the samples were included in resin in 4 steps: ethanol 96°—resin LR-White 2:1 (20 h), ethanol 100°—resin 2:1 (20 h), ethanol 100°—resin 1:2 (20 h) and 100% resin (24 h at 60° C.). After the samples were included in the resin the block was prepared for ultrathin cuts of 60 nm in the equipment Leica UC6 Ultracut Microtome.\nTransmission electron microscopy provides high-resolution images which were used to view the ultrastructural damage caused by the peptides inside the bacteria. The cells of S. aureus CECT 4013 were treated with the peptides hBD-3, TcDef3-pep and PaSK at a concentration of 25 μg/mL, for 1 h, and analysed using transmission electron microscopy (FIG. 6). In cells without treatment, an intact cytoplasm membrane (3) and peptidoglycane wall (2) were observed, typical of a Gram+ bacteria as S. aureus, as well as a division septum (1) without malformations, while in treated cells different types of alterations were observed. […] Small size circular structures (9) are observed. These structures show a different electrodensity from cells and lack a cytoplasm membrane and peptidoglycane wall. The biofilm formed by the cells treated with peptides was also observed in the images obtained by transmission electron microscopy (FIG. 7) and it was not observed in the cells treated with human defensin hBD-3 (FIG. 6)."}, "MDA-MB-231 tumour cells": {"system": "MDA-MB-231 tumour cells", "assay": "Scanning and transmission electron microscopy of tumour cells", "type": "cell-based, human", "conditions": "100 μg/mL, 72 h", "description": "The MDA-MB-231 cells, control or treated with 100 μg/mL of PaSK, were prepared as indicated in the section “Preparation of the samples”. The cells were fixed with Karnosky (2.5% paraformaldehyde and 0.5% glutaraldehyde) for 2 h at 4° C. After washing (centrifuging and eliminating the supernatant) they were fixed with 2% osmium tetraoxide for another 2 h, washed again and filtered with a 0.2 μm filter. The cells were then dehydrated in graded ethanol series (30°, 50°, 70°, 90°, 100°) for 10 min in each gradation. To carry out the critical point drying, the ethanol was replaced with liquid CO2, the temperature was increased to accelerate evaporation and the pressure was lowered slowly to conserve the exact shape of the cells. Finally, shading with gold palladium was performed for 2 min observing the results in the equipment FEG-SEM HITACHI S4800 at 10 Kv. […]\nBoth scanning electron microscopy and transmission electron microscopy provide high resolution images, which were used to view the morphological and ultrastructural changes caused by the peptide PaSK in the membrane and inside of tumour cells. The MDA-MB-231 cells were treated with the peptide PaSK at a concentration of 100 μg/mL for 72 h, and were analysed using scanning electron microscopy (FIG. 14) and transmission electron microscopy (FIG. 15). […]"}, "MDA-MB-231 cells [3]": {"system": "MDA-MB-231 cells", "assay": "Differential proteomic analysis by SWATH", "type": "cell-based, human"}}, "note": "Like-named read-outs stand apart in the source and are kept apart here. Where a SMILES comes first, the peptide text is derived from it."}
{"compound": "CC[C@H](C)[C@H](NC(=O)[C@H](CCCNC(=N)N)NC(=O)[C@H](CCCNC(=N)N)NC(=O)[C@H](CCCCN)NC(=O)[C@H](CC(N)=O)NC(=O)[C@H](CS)NC(=O)[C@H](Cc1ccc(O)cc1)NC(=O)CNC(=O)CNC(=O)[C@H](CCCNC(=N)N)NC(=O)[C@H](CCCCN)NC(=O)[C@H](CCCNC(=N)N)NC(=O)[C@H](CCCCN)NC(=O)[C@H](CC(C)C)NC(=O)[C@H](CC(C)C)NC(=O)[C@H](CS)NC(=O)[C@H](Cc1c[nH]cn1)NC(=O)[C@H](C)NC(=O)[C@H](C)NC(=O)[C@H](CS)NC(=O)[C@H](C)NC(=O)[C@H](C)NC(=O)[C@H](Cc1c[nH]cn1)NC(=O)[C@H](CC(N)=O)NC(=O)[C@@H](NC(=O)[C@@H](N)CCCCN)C(C)C)C(=O)N[C@@H](CS)C(=O)N[C@H](C(=O)N[C@@H](CS)C(=O)N[C@@H](CCCNC(=N)N)C(=O)N[C@@H](CC(N)=O)C(=O)O)C(C)C", "note": "[PaSK] (H-KVNHAACAAHCLLKRKRGGYCNKRRICVCRN-OH; N-terminus and C-terminus assumed)", "values": [{"measurement": "cell proliferation (Oregon Green fluorescence intensity)", "setting": "MDA-MB-231 cells [1]", "result": "inhibits proliferation"}, {"measurement": "mortality at 24 h, 200 μM", "setting": "[2]", "result": "~50", "unit": "%"}, {"measurement": "ultrastructural damage, transmission electron microscopy", "setting": "S. aureus", "result": "detachments, malformations and thinning of the membrane"}, {"measurement": "morphological and ultrastructural changes", "setting": "MDA-MB-231 tumour cells", "result": "significant morphological changes"}, {"measurement": "T/C change ratio", "setting": "MDA-MB-231 cells [3]", "result": 1.45}, {"measurement": "T/C change ratio", "setting": "MDA-MB-231 cells [3]; ASNA_HUMAN, ATPase ASNA1", "result": 0.21}, {"measurement": "T/C change ratio", "setting": "MDA-MB-231 cells [3]; BAZ1B_HUMAN, Tyrosine-protein kinase BAZ1B", "result": 0.31}, {"measurement": "T/C change ratio", "setting": "MDA-MB-231 cells [3]; CALD1_HUMAN, Caldesmon", "result": 0.71}, {"measurement": "T/C change ratio", "setting": "MDA-MB-231 cells [3]; CDCP1_HUMAN, Protein 1 containing domain CUB", "result": 1.22}, {"measurement": "T/C change ratio", "setting": "MDA-MB-231 cells [3]; CK068_HUMAN, UPF0696 protein C11orf68", "result": 0.83}, {"measurement": "T/C change ratio", "setting": "MDA-MB-231 cells [3]; DCUP_HUMAN, Uroporfphyrinogen decarboxylase", "result": 0.21}, {"measurement": "T/C change ratio", "setting": "MDA-MB-231 cells [3]; DDX17_HUMAN, Probable DDX17 ATP-dependent RNA helicase", "result": 0.84}, {"measurement": "T/C change ratio", "setting": "MDA-MB-231 cells [3]; DENR_HUMAN, Density regulated protein", "result": 0.31}, {"measurement": "T/C change ratio", "setting": "MDA-MB-231 cells [3]; DHX36_HUMAN, DHX36 ATP-dependent RNA helicase", "result": 0.27}, {"measurement": "T/C change ratio", "setting": "MDA-MB-231 cells [3]; DPOD1_HUMAN, DNA polymerase delta catalytic subunit", "result": 0.50}, {"measurement": "T/C change ratio", "setting": "MDA-MB-231 cells [3]; EIF3B_HUMAN, Eukaryotic translation initiation factor 3B (EIF3B)", "result": 0.84}, {"measurement": "T/C change ratio", "setting": "MDA-MB-231 cells [3]; FXR1_HUMAN, Fragile X mental retardation protein 1", "result": 0.76}, {"measurement": "T/C change ratio", "setting": "MDA-MB-231 cells [3]; GPX1_HUMAN, Glutathione peroxidase 1 (GPX1)", "result": 5.89}, {"measurement": "T/C change ratio", "setting": "MDA-MB-231 cells [3]; KAD2_HUMAN, Adenylate kinase 2, mitochondrial", "result": 0.51}, {"measurement": "T/C change ratio", "setting": "MDA-MB-231 cells [3]; LARP1_HUMAN, La related protein 1 (LARP1)", "result": 0.28}, {"measurement": "T/C change ratio", "setting": "MDA-MB-231 cells [3]; MANF_HUMAN, Mesencephalic astrocyte-derived neurotrophic factor", "result": 0.63}, {"measurement": "T/C change ratio", "setting": "MDA-MB-231 cells [3]; MMP14_HUMAN, Matrix metalloprotease-14", "result": 1.92}, {"measurement": "T/C change ratio", "setting": "MDA-MB-231 cells [3]; PYRG1_HUMAN, CTP synthase 1", "result": 0.82}, {"measurement": "T/C change ratio", "setting": "MDA-MB-231 cells [3]; RL5_HUMAN, 60 S ribosomal protein L5 (RPSL5)", "result": 0.60}, {"measurement": "T/C change ratio", "setting": "MDA-MB-231 cells [3]; RS13_HUMAN, 40S ribosomal protein S13 (RPS13)", "result": 0.82}, {"measurement": "T/C change ratio", "setting": "MDA-MB-231 cells [3]; SDCB1_HUMAN, Sintenin-1", "result": 1.43}, {"measurement": "T/C change ratio", "setting": "MDA-MB-231 cells [3]; SET_HUMAN, SET protein", "result": 0.90}, {"measurement": "T/C change ratio", "setting": "MDA-MB-231 cells [3]; SH3G1_HUMAN, Endophilin-A2", "result": 0.63}, {"measurement": "T/C change ratio", "setting": "MDA-MB-231 cells [3]; SHLB2_HUMAN, Endophilin-B2", "result": 0.29}, {"measurement": "T/C change ratio", "setting": "MDA-MB-231 cells [3]; SQRD_HUMAN, Sulphide: quinone oxidoreductase (SQRDL), mitochondrial", "result": 1.30}, {"measurement": "T/C change ratio", "setting": "MDA-MB-231 cells [3]; TAGL2_HUMAN, Transgelin-2", "result": 0.75}, {"measurement": "T/C change ratio", "setting": "MDA-MB-231 cells [3]; TM9S4_HUMAN, Member 4 of the transmembrane 9 superfamily", "result": 0.37}, {"measurement": "T/C change ratio", "setting": "MDA-MB-231 cells [3]; TPM4_HUMAN, Tropomyosin alpha-4 chain", "result": 0.74}, {"measurement": "T/C change ratio", "setting": "MDA-MB-231 cells [3]; TRXR1_HUMAN, Thioredoxin reductase 1 (TXNRD1), cytoplasmic", "result": 1.59}, {"measurement": "T/C change ratio", "setting": "MDA-MB-231 cells [3]; U2AF2_HUMAN, U2AF union factor 65 kDa subunit", "result": 0.31}]}
